pIC50: −log10 of the molar value.
Key:
[1] = Antibacterial activity of TMP-susceptible Dihydrofolate reductase against […] ATCC 49619
[2] = Inhibitory activity of TMP-susceptible Dihydrofolate reductase against […] ATCC 49619

Compound	pIC50 [1]	pIC50 [2]
COc1ccc2c(c1)CN(Cc1cnc(N)nc1N)CC2c1cccc([N+](=O)[O-])c1 (stereo unspecified) [5-[7-Methoxy-4-(3-nitro-phenyl)-3,4-dihydro-1H-isoquinolin-2-ylmethyl]-pyrimidine-2,4-diamine]	8.22	–
CC1c2cc(Cc3ccccc3)c(-c3ccccc3)n2CCN1Cc1cnc(N)nc1N (stereo unspecified) [5-(7-Benzyl-1-methyl-6-phenyl-3,4-dihydro-1H-pyrrolo[1,2-a]pyrazin-2-ylmethyl)-pyrimidine-2,4-diamine]	6.35	–
CC1c2ccc3c4ccccc4n(C)c3c2CCN1Cc1cnc(N)nc1N (stereo unspecified) [5-(4,11-Dimethyl-1,2,4,11-tetrahydro-pyrido[4,3-a]carbazol-3-ylmethyl)-pyrimidine-2,4-diamine]	8.40	8.00
Nc1ncc(CN2CCc3c([nH]c4ccccc34)C2)c(N)n1 [5-(1,3,4,9-Tetrahydro-beta-carbolin-2-ylmethyl)-pyrimidine-2,4-diamine]	8.40	–
CSc1c2n(c3cc(Cl)ccc13)CCN(Cc1cnc(N)nc1N)C2 [5-(7-Chloro-10-methylsulfanyl-3,4-dihydro-1H-pyrazino[1,2-a]indol-2-ylmethyl)-pyrimidine-2,4-diamine]	8.70	–

Reference: BindingDB's records for doi:10.1021/jm020495y (F. Hoffmann-La Roche, 2003)
